Patent publication US20110212958A1, “FATTY ACID RALOXIFENE DERIVATIVES AND THEIR USES” (CATABASIS PHARMACEUTICALS, INC., priority 2010, published 2011)

Test system: NF-κB
Assay: NF-κB luciferase reporter assay in LPS-stimulated RAW 264.7 macrophages
Type: cell-based
Details: Mus musculus, RAW264.7; RAW 264.7 cells with 3× NFkB response element luciferase reporter; 2 hour pretreatment, 200 ng/ml LPS for 3 hours; 6 dose point titrations in triplicate
Method: RAW 264.7 cells stably expressing a 3× NFkB response elemement-drive luciferase reporter were seeded into 96 well plates in sera-free medium (Optimem) 18 hours prior to compound application. Compounds of the invention were prepared by first making 100 mM stock solutions in EtOH. Stock solutions were then diluted 1:100 in low LPS FBS (Gemini BenchMark 100-106), mixed vigorously and allowed to incubate at room temperature for 30 minutes. 1:2 serial dilutions were then made in FBS supplemented with 1% EtOH, mixed vigorously, and again allowed to incubate at room temperature for 30 minutes before adding to RAW 264.7 reporter cells (final concentrations: 10% FBS, 100 uM highest compound dilution, 0.1% EtOH) for a 2 hour pretreatment prior to stimulation with LPS. Cells were then stimulated with 200 ng/ml LPS or vehicle control for 3 hours in the presence of the compounds of the invention. A set of six vehicles was left unstimulated with LPS in order to measure the assay floor. […] After the 3 h incubation period with LPS, cell viability was measured by reading fluorescence (excitation 550 nm, emission 595 nm) with a Perkin Elmer Victor V plate reader. […] Luciferase activity was measured with the Perkin Elmer Victor V plate reader. NF-κB activity was expressed as a percent of the vehicle control wells (stimulated with LPS). […]

CC/C=C\C/C=C\C/C=C\C/C=C\C/C=C\C/C=C\CCC(=O)NCCNC(=O)Oc1ccc2c(C(=O)c3ccc(OCCN4CCOCC4)cc3)c(-c3ccc(O)cc3)sc2c1 [III-4, 2-(4-hydroxyphenyl)-3-(4-(2-morpholinoethoxy)benzoyl)benzo[b]thiophen-6-yl 2-(4Z,7Z,10Z,13Z,16Z,19Z)-docosa-4,7,10,13,16,19-hexaenamidoethylcarbamate]
IC50: ~50 µM
